Laboratory results taken from ChEMBL document CHEMBL3091383, “Sorbicillamines A-E, nitrogen-containing sorbicillinoids from the deep-sea-derived fungus Penicillium sp. F23-2” (J Nat Prod, 2013).

Tests used:
P388 = test: Cytotoxicity against mouse P388 cells by SRB assay; type: functional, cell-based
HCT-116 = test: Cytotoxicity against human HCT116 cells by MTT assay; type: functional, cell-based
HEK293 = test: Cytotoxicity against HEK293 cells by MTT assay; type: cell-based; conditions: Homo sapiens
[1] = Cytotoxicity against human Bel7402 cells by MTT assay; type: functional, cell-based; conditions: Bel-7402
HeLa = test: Cytotoxicity against human HeLa cells by MTT assay; type: functional, cell-based

Measured: IC50

C/C=C/C=C/C(O)=C1/C(=O)C(C)=C(O)[C@@]2(C)O[C@@]3(O)[C@@](C)(O)C4=C(C(=O)C[C@@H](/C=C/C)N4)C(=O)[C@@]3(C)[C@@H]12
> 10 µM: all assays above

C/C=C/C=C/C(=O)C1=C(N)[C@](C)(O)[C@]2(O)O[C@]3(C)C(O)=C(C)C(=O)/C(=C(O)/C=C/C=C/C)[C@@H]3[C@]2(C)C1=O
> 10 µM: all assays above

C/C=C/C=C/C(=O)C1=C(O)[C@]2(C)C(=O)[C@@](C)(O)[C@H]1N1CCC[C@@H]12
> 10 µM: all assays above

C/C=C/C=C/C(O)=C1\C(=O)[C@]2(C)C(=O)C(C)(O)[C@H]1[C@H](C(=O)C1=C(N)[C@](C)(O)[C@]3(O)O[C@]4(C)C(O)=C(C)C(=O)\C(=C(O)/C=C/C=C/C)[C@@H]4[C@]3(C)C1=O)[C@H]2/C=C/C (stereo not given in full)
> 10 µM: all assays above

C/C=C/C=C/C(O)=C1/C(=O)C(C)=C(O)[C@@]2(C)O[C@@]3(O)[C@@](C)(O)C4=C(C(=O)C[C@H](/C=C/C)N4)C(=O)[C@@]3(C)[C@@H]12
> 10 µM: all assays above
